Data from US8399033B2, “Anti-bacterial composition comprising extract from barks of Alnus pendula Matsum” (Chung-Ang University Industry Academic Cooperation …, priority 2009, dated 2013).
Converted amounts (≈) assume the structure as drawn.

Assays:
[1] = DPPH free radical scavenging activity; type: biochemical; details: 0.1 mM DPPH, 30 min at 37° C., absorbance 492 nm; for IC50: compounds
Description: Each sample (10 μL) was incubated with 0.1 mM DPPH solution (180 μL, in 99.5% ethanol), and vigorously agitated for 10 sec using a vortex mixer, followed by incubation for 30 min at 37° C. Afterwards, the absorbance was measured at 492 nm using an ELISA reader (TECAN, Sazburg, Austria). L-ascorbic acid as positive control drug was prepared and measured according to the method as described above. To determine anti-oxidative activity of each sample, anti-oxidative potential was represented as reducing power by EDA % (Electron donating ability) for DPPH. […] DPPH method is a representative measuring anti-oxidative activity (81). DPPH contains stable radical in normal condition, but its radical was removed where it contacts with a substance having anti-oxidative activity. Therefore, anti-oxidative effects could be assessed by measuring the absorbance changes of DPPH. In this regard, DPPH as a relatively stable free radical in dark-purple state was reduced by amino acids containing sulfur atom such as cystin and glutathione, L-ascorbic acid, BHA or BHT. These color changes have been used to isolate an anti-oxidative substance from a variety of natural materials (82).

[2] = tested on: S. aureus ATCC 33591 (MRSA); experiment: MIC by liquid media dilution assay; type: cell-based; details: Staphylococcus aureus, 24 hrs at 37° C., naked-eye observation, read-out: MIC (minimum inhibitory concentration)
Description: (§1) S.aureus MSSA ATCC 25923 and MRSA 33591 standard strains were purchased from Korean Culture Center of Microorganisms (KCCM), and two S. aureus clinical isolates were obtained from subjects of WonKwang University Hospital (Iksan, Jeonbuk, South Korea). Mueller Hinton Agar (MHA, Difco, USA) or Mueller Hinton Broth (MHB, Difco, USA) was used as subculture media.
(§2) Minimum Inhibitory Concentration (MIC) was carried out according to the standard of Clinical and Laboratory Standards Institute (CLSI). One strain of MRSA (Methicillin resistant staphylococcus aureus), one strain of MSSA (Methicillin susceptible staphylococcus aureus, MSSA), and two strains of MRSAs as clinical isolates obtained from plastic surgery subjects of WonKwang University Hospital, were suspended in Muller-Hinton Broth. Thereafter, the bacterial solutions were adjusted to the turbidity of 0.5 Mcfarland standard. The bacteria were prepared at a concentration of about 1×10^8 CFU/ml, followed by performing anti-bacterial experiment using a liquid media dilution assay.
(§3) The extract from a bark of Alnus pendula was serially diluted from minimal concentration (0.97 μg/ml) to maximal concentration (2 mg/ml) using DMSO (Dimethylsulfoxide) as a solvent, and then were seeded into each well of 96-well plate with a volume of 10 μl/well, followed by adding 100 μl bacterial solution and 90 μl media. After culturing the mixture for 24 hrs at 37° C. in incubator, MIC was defined as minimal concentration in which the growth of bacteria is inhibited in a naked-eye observation.

DPS-2 (MRSA) = experiment: MIC by liquid media dilution assay; type: cell-based; details: Staphylococcus aureus; DPS-2 (MRSA) clinical isolate; 24 hrs at 37° C., naked-eye observation; read-out: MIC (minimum inhibitory concentration)
Description: as §1, §2, §3

DPS-1 (MRSA) = experiment: MIC by liquid media dilution assay; type: cell-based; details: Staphylococcus aureus; DPS-1 (MRSA) clinical isolate; 24 hrs at 37° C., naked-eye observation; read-out: MIC (minimum inhibitory concentration)
Description: as §1, §2, §3

[3] = tested on: S. aureus ATCC 25923 (MSSA); experiment: MIC by liquid media dilution assay; type: cell-based; details: Staphylococcus aureus, 24 hrs at 37° C., naked-eye observation, read-out: MIC (minimum inhibitory concentration)
Description: as §1, §2, §3

SMILES	IC50 [1]	IC50 value DPPH radical scavenging activity ([1]; extract and fractions)	MIC [2]	MIC (DPS-2 (MRSA))	MIC (DPS-1 (MRSA))	MIC [3]
O=C1O[C@H]([C@@H](O)CO)C(O)=C1O [Vit. C, L-ascorbic acid]	16.4 ± 0.21 µM	5.29 ± 0.05 µg/mL (≈ 30 µM)				
O=C(/C=C/CCc1ccc(O)c(O)c1)CCc1ccc(O)c(O)c1 [compound 2, 1,7-bis-(3,4-dihydroxyphenyl)-4-heptene-3-one]	22.5 ± 0.71 µM		62.5 µg/mL (≈ 190 µM)	62.5 µg/mL (≈ 190 µM)	125 µg/mL (≈ 381 µM)	62.5 µg/mL (≈ 190 µM)
